Assay results taken from ChEMBL document CHEMBL5303573, “Mapping human microbiome drug metabolism by gut bacteria and their genes” (Nature, 2019).

experiment: The drug is tested on Bacteroides vulgatus strain: ATCC8482 for biotransformation. The drug concentrations were measured before and after a 12-h incubation by liquid-chromatography-coupled mass spectrometry (LC–MS); conditions: phocaeicola vulgatus, 2 µM

Row | Structure (SMILES) | Bacterial Biotransformation
1 | CCOC(=O)[C@H](CCc1ccccc1)N[C@@H](C)C(=O)N1CCC[C@H]1C(=O)O.O=C(O)/C=C\C(=O)O [ENALAPRIL MALEATE] | Compound NOT metabolized
2 | CC(=O)O[C@]1(C(C)=O)CC[C@H]2[C@@H]3C=C(C)C4=CC(=O)CC[C@]4(C)[C@H]3CC[C@@]21C [MEGESTROL ACETATE] | Compound metabolized
3 | OCCN1CCN(CCCN2c3ccccc3Sc3ccc(C(F)(F)F)cc32)CC1 [FLUPHENAZINE] | Compound metabolized

experiment: The drug is tested on Escherichia coli strain: BW25113 for biotransformation. The drug concentrations were measured before and after a 12-h incubation by liquid-chromatography-coupled mass spectrometry (LC–MS); conditions: 2 µM

Row | Structure (SMILES) | Bacterial Biotransformation
4 | CCOC(=O)[C@H](CCc1ccccc1)N[C@@H](C)C(=O)N1CCC[C@H]1C(=O)O.O=C(O)/C=C\C(=O)O [ENALAPRIL MALEATE] | Compound NOT metabolized
5 | CC(=O)O[C@]1(C(C)=O)CC[C@H]2[C@@H]3C=C(C)C4=CC(=O)CC[C@]4(C)[C@H]3CC[C@@]21C [MEGESTROL ACETATE] | Compound metabolized
6 | OCCN1CCN(CCCN2c3ccccc3Sc3ccc(C(F)(F)F)cc32)CC1 [FLUPHENAZINE] | Compound metabolized

experiment: The drug is tested on Clostridium sp. strain: fecal isolate for biotransformation. The drug concentrations were measured before and after a 12-h incubation by liquid-chromatography-coupled mass spectrometry (LC–MS); conditions: 2 µM

Row | Structure (SMILES) | Bacterial Biotransformation
7 | CC(=O)O[C@]1(C(C)=O)CC[C@H]2[C@@H]3C=C(C)C4=CC(=O)CC[C@]4(C)[C@H]3CC[C@@]21C [MEGESTROL ACETATE] | Compound metabolized

experiment: The drug is tested on Blautia hansenii strain: DSM20583 for biotransformation. The drug concentrations were measured before and after a 12-h incubation by liquid-chromatography-coupled mass spectrometry (LC–MS); conditions: 2 µM

Row | Structure (SMILES) | Bacterial Biotransformation
8 | CCOC(=O)[C@H](CCc1ccccc1)N[C@@H](C)C(=O)N1CCC[C@H]1C(=O)O.O=C(O)/C=C\C(=O)O [ENALAPRIL MALEATE] | Compound metabolized
9 | CC(=O)O[C@]1(C(C)=O)CC[C@H]2[C@@H]3C=C(C)C4=CC(=O)CC[C@]4(C)[C@H]3CC[C@@]21C [MEGESTROL ACETATE] | Compound metabolized
10 | OCCN1CCN(CCCN2c3ccccc3Sc3ccc(C(F)(F)F)cc32)CC1 [FLUPHENAZINE] | Compound NOT metabolized

experiment: The drug is tested on Enterococcus faecalis strain: V583 for biotransformation. The drug concentrations were measured before and after a 12-h incubation by liquid-chromatography-coupled mass spectrometry (LC–MS); conditions: 2 µM

Row | Structure (SMILES) | Bacterial Biotransformation
11 | CCOC(=O)[C@H](CCc1ccccc1)N[C@@H](C)C(=O)N1CCC[C@H]1C(=O)O.O=C(O)/C=C\C(=O)O [ENALAPRIL MALEATE] | Compound NOT metabolized
12 | CC(=O)O[C@]1(C(C)=O)CC[C@H]2[C@@H]3C=C(C)C4=CC(=O)CC[C@]4(C)[C@H]3CC[C@@]21C [MEGESTROL ACETATE] | Compound NOT metabolized
13 | OCCN1CCN(CCCN2c3ccccc3Sc3ccc(C(F)(F)F)cc32)CC1 [FLUPHENAZINE] | Compound NOT metabolized

conditions: anaerostipes sp., 12 h, 2 µM
Description: The drug is tested on Anaerostipes sp. strain: fecal isolate for biotransformation. The drug concentrations were measured before and after a 12-h incubation by liquid-chromatography-coupled mass spectrometry (LC–MS)

Row | Structure (SMILES) | Bacterial Biotransformation
14 | CCOC(=O)[C@H](CCc1ccccc1)N[C@@H](C)C(=O)N1CCC[C@H]1C(=O)O.O=C(O)/C=C\C(=O)O [ENALAPRIL MALEATE] | Compound NOT metabolized
15 | CC(=O)O[C@]1(C(C)=O)CC[C@H]2[C@@H]3C=C(C)C4=CC(=O)CC[C@]4(C)[C@H]3CC[C@@]21C [MEGESTROL ACETATE] | Compound NOT metabolized
16 | OCCN1CCN(CCCN2c3ccccc3Sc3ccc(C(F)(F)F)cc32)CC1 [FLUPHENAZINE] | Compound metabolized

experiment: The drug is tested on Clostridium sporogenes strain: ATCC15579 for biotransformation. The drug concentrations were measured before and after a 12-h incubation by liquid-chromatography-coupled mass spectrometry (LC–MS); conditions: 2 µM

Row | Structure (SMILES) | Bacterial Biotransformation
17 | CCOC(=O)[C@H](CCc1ccccc1)N[C@@H](C)C(=O)N1CCC[C@H]1C(=O)O.O=C(O)/C=C\C(=O)O [ENALAPRIL MALEATE] | Compound NOT metabolized
18 | OCCN1CCN(CCCN2c3ccccc3Sc3ccc(C(F)(F)F)cc32)CC1 [FLUPHENAZINE] | Compound NOT metabolized

conditions: parabacteroides johnsonii, 12 h, 2 µM
Description: The drug is tested on Parabacteroides johnsonii strain: DSM18315 for biotransformation. The drug concentrations were measured before and after a 12-h incubation by liquid-chromatography-coupled mass spectrometry (LC–MS)

Row | Structure (SMILES) | Bacterial Biotransformation
19 | CC(=O)O[C@]1(C(C)=O)CC[C@H]2[C@@H]3C=C(C)C4=CC(=O)CC[C@]4(C)[C@H]3CC[C@@]21C [MEGESTROL ACETATE] | Compound metabolized
20 | OCCN1CCN(CCCN2c3ccccc3Sc3ccc(C(F)(F)F)cc32)CC1 [FLUPHENAZINE] | Compound metabolized

experiment: The drug is tested on Bacteroides cellulosilyticus strain: DSM14838 for biotransformation. The drug concentrations were measured before and after a 12-h incubation by liquid-chromatography-coupled mass spectrometry (LC–MS); conditions: 2 µM

Row | Structure (SMILES) | Bacterial Biotransformation
21 | CCOC(=O)[C@H](CCc1ccccc1)N[C@@H](C)C(=O)N1CCC[C@H]1C(=O)O.O=C(O)/C=C\C(=O)O [ENALAPRIL MALEATE] | Compound NOT metabolized
22 | CC(=O)O[C@]1(C(C)=O)CC[C@H]2[C@@H]3C=C(C)C4=CC(=O)CC[C@]4(C)[C@H]3CC[C@@]21C [MEGESTROL ACETATE] | Compound NOT metabolized
23 | OCCN1CCN(CCCN2c3ccccc3Sc3ccc(C(F)(F)F)cc32)CC1 [FLUPHENAZINE] | Compound metabolized

experiment: The drug is tested on Clostridium scindens strain: ATCC35704 for biotransformation. The drug concentrations were measured before and after a 12-h incubation by liquid-chromatography-coupled mass spectrometry (LC–MS); conditions: 2 µM

Row | Structure (SMILES) | Bacterial Biotransformation
24 | CCOC(=O)[C@H](CCc1ccccc1)N[C@@H](C)C(=O)N1CCC[C@H]1C(=O)O.O=C(O)/C=C\C(=O)O [ENALAPRIL MALEATE] | Compound NOT metabolized
25 | CC(=O)O[C@]1(C(C)=O)CC[C@H]2[C@@H]3C=C(C)C4=CC(=O)CC[C@]4(C)[C@H]3CC[C@@]21C [MEGESTROL ACETATE] | Compound metabolized
26 | OCCN1CCN(CCCN2c3ccccc3Sc3ccc(C(F)(F)F)cc32)CC1 [FLUPHENAZINE] | Compound NOT metabolized

conditions: bacteroides fragilis, 12 h, 2 µM
Description: The drug is tested on Bacteroides fragilis strain: 3397 (T10) for biotransformation. The drug concentrations were measured before and after a 12-h incubation by liquid-chromatography-coupled mass spectrometry (LC–MS)

Row | Structure (SMILES) | Bacterial Biotransformation
27 | CCOC(=O)[C@H](CCc1ccccc1)N[C@@H](C)C(=O)N1CCC[C@H]1C(=O)O.O=C(O)/C=C\C(=O)O [ENALAPRIL MALEATE] | Compound NOT metabolized
28 | CC(=O)O[C@]1(C(C)=O)CC[C@H]2[C@@H]3C=C(C)C4=CC(=O)CC[C@]4(C)[C@H]3CC[C@@]21C [MEGESTROL ACETATE] | Compound metabolized
29 | OCCN1CCN(CCCN2c3ccccc3Sc3ccc(C(F)(F)F)cc32)CC1 [FLUPHENAZINE] | Compound metabolized

experiment: The drug is tested on Bifidobacterium breve strain: DSM20213 for biotransformation. The drug concentrations were measured before and after a 12-h incubation by liquid-chromatography-coupled mass spectrometry (LC–MS); conditions: 2 µM

Row | Structure (SMILES) | Bacterial Biotransformation
30 | CCOC(=O)[C@H](CCc1ccccc1)N[C@@H](C)C(=O)N1CCC[C@H]1C(=O)O.O=C(O)/C=C\C(=O)O [ENALAPRIL MALEATE] | Compound NOT metabolized
31 | CC(=O)O[C@]1(C(C)=O)CC[C@H]2[C@@H]3C=C(C)C4=CC(=O)CC[C@]4(C)[C@H]3CC[C@@]21C [MEGESTROL ACETATE] | Compound NOT metabolized
32 | OCCN1CCN(CCCN2c3ccccc3Sc3ccc(C(F)(F)F)cc32)CC1 [FLUPHENAZINE] | Compound NOT metabolized

experiment: The drug is tested on Providencia rettgeri strain: DSM1131 for biotransformation. The drug concentrations were measured before and after a 12-h incubation by liquid-chromatography-coupled mass spectrometry (LC–MS); assay type: ADME; design: dose 2 uM, timepoint 0 vs 12 hours; conditions: 2 µM

Row | Structure (SMILES) | Bacterial Biotransformation
33 | CCOC(=O)[C@H](CCc1ccccc1)N[C@@H](C)C(=O)N1CCC[C@H]1C(=O)O.O=C(O)/C=C\C(=O)O [ENALAPRIL MALEATE] | Compound NOT metabolized
34 | OCCN1CCN(CCCN2c3ccccc3Sc3ccc(C(F)(F)F)cc32)CC1 [FLUPHENAZINE] | Compound NOT metabolized

conditions: parabacteroides distasonis, 12 h, 2 µM
Description: The drug is tested on Parabacteroides distasonis strain: ATCC8503 for biotransformation. The drug concentrations were measured before and after a 12-h incubation by liquid-chromatography-coupled mass spectrometry (LC–MS)

Row | Structure (SMILES) | Bacterial Biotransformation
35 | CCOC(=O)[C@H](CCc1ccccc1)N[C@@H](C)C(=O)N1CCC[C@H]1C(=O)O.O=C(O)/C=C\C(=O)O [ENALAPRIL MALEATE] | Compound NOT metabolized
36 | CC(=O)O[C@]1(C(C)=O)CC[C@H]2[C@@H]3C=C(C)C4=CC(=O)CC[C@]4(C)[C@H]3CC[C@@]21C [MEGESTROL ACETATE] | Compound metabolized
37 | OCCN1CCN(CCCN2c3ccccc3Sc3ccc(C(F)(F)F)cc32)CC1 [FLUPHENAZINE] | Compound metabolized

experiment: The drug is tested on Bacteroides caccae strain: ATCC43185 for biotransformation. The drug concentrations were measured before and after a 12-h incubation by liquid-chromatography-coupled mass spectrometry (LC–MS); conditions: 2 µM

Row | Structure (SMILES) | Bacterial Biotransformation
38 | CCOC(=O)[C@H](CCc1ccccc1)N[C@@H](C)C(=O)N1CCC[C@H]1C(=O)O.O=C(O)/C=C\C(=O)O [ENALAPRIL MALEATE] | Compound NOT metabolized
39 | OCCN1CCN(CCCN2c3ccccc3Sc3ccc(C(F)(F)F)cc32)CC1 [FLUPHENAZINE] | Compound metabolized

conditions: segatella copri, 12 h, 2 µM
Description: The drug is tested on Prevotella copri strain: DSM18205 for biotransformation. The drug concentrations were measured before and after a 12-h incubation by liquid-chromatography-coupled mass spectrometry (LC–MS)

Row | Structure (SMILES) | Bacterial Biotransformation
40 | CCOC(=O)[C@H](CCc1ccccc1)N[C@@H](C)C(=O)N1CCC[C@H]1C(=O)O.O=C(O)/C=C\C(=O)O [ENALAPRIL MALEATE] | Compound NOT metabolized
41 | CC(=O)O[C@]1(C(C)=O)CC[C@H]2[C@@H]3C=C(C)C4=CC(=O)CC[C@]4(C)[C@H]3CC[C@@]21C [MEGESTROL ACETATE] | Compound NOT metabolized
42 | OCCN1CCN(CCCN2c3ccccc3Sc3ccc(C(F)(F)F)cc32)CC1 [FLUPHENAZINE] | Compound metabolized

experiment: The drug is tested on Ruminococcus lactaris strain: ATCC29176 for biotransformation. The drug concentrations were measured before and after a 12-h incubation by liquid-chromatography-coupled mass spectrometry (LC–MS); conditions: 2 µM

Row | Structure (SMILES) | Bacterial Biotransformation
43 | CCOC(=O)[C@H](CCc1ccccc1)N[C@@H](C)C(=O)N1CCC[C@H]1C(=O)O.O=C(O)/C=C\C(=O)O [ENALAPRIL MALEATE] | Compound NOT metabolized
44 | CC(=O)O[C@]1(C(C)=O)CC[C@H]2[C@@H]3C=C(C)C4=CC(=O)CC[C@]4(C)[C@H]3CC[C@@]21C [MEGESTROL ACETATE] | Compound NOT metabolized
45 | OCCN1CCN(CCCN2c3ccccc3Sc3ccc(C(F)(F)F)cc32)CC1 [FLUPHENAZINE] | Compound NOT metabolized

experiment: The drug is tested on Odoribacter splanchnicus strain: fecal isolate for biotransformation. The drug concentrations were measured before and after a 12-h incubation by liquid-chromatography-coupled mass spectrometry (LC–MS); conditions: 2 µM

Row | Structure (SMILES) | Bacterial Biotransformation
46 | CCOC(=O)[C@H](CCc1ccccc1)N[C@@H](C)C(=O)N1CCC[C@H]1C(=O)O.O=C(O)/C=C\C(=O)O [ENALAPRIL MALEATE] | Compound NOT metabolized
47 | CC(=O)O[C@]1(C(C)=O)CC[C@H]2[C@@H]3C=C(C)C4=CC(=O)CC[C@]4(C)[C@H]3CC[C@@]21C [MEGESTROL ACETATE] | Compound metabolized

conditions: bacteroides thetaiotaomicron, 12 h, 2 µM
Description: The drug is tested on Bacteroides thetaiotaomicron strain: VPI-5482 for biotransformation. The drug concentrations were measured before and after a 12-h incubation by liquid-chromatography-coupled mass spectrometry (LC–MS)

Row | Structure (SMILES) | Bacterial Biotransformation
48 | OCCN1CCN(CCCN2c3ccccc3Sc3ccc(C(F)(F)F)cc32)CC1 [FLUPHENAZINE] | Compound metabolized

conditions: bifidobacterium adolescentis, 12 h, 2 µM
Description: The drug is tested on Bifidobacterium adolescentis strain: ATCC 15703 for biotransformation. The drug concentrations were measured before and after a 12-h incubation by liquid-chromatography-coupled mass spectrometry (LC–MS)

Row | Structure (SMILES) | Bacterial Biotransformation
49 | CCOC(=O)[C@H](CCc1ccccc1)N[C@@H](C)C(=O)N1CCC[C@H]1C(=O)O.O=C(O)/C=C\C(=O)O [ENALAPRIL MALEATE] | Compound NOT metabolized
50 | CC(=O)O[C@]1(C(C)=O)CC[C@H]2[C@@H]3C=C(C)C4=CC(=O)CC[C@]4(C)[C@H]3CC[C@@]21C [MEGESTROL ACETATE] | Compound metabolized
51 | OCCN1CCN(CCCN2c3ccccc3Sc3ccc(C(F)(F)F)cc32)CC1 [FLUPHENAZINE] | Compound NOT metabolized
